From PubChem BioAssay (NCI)
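Tested at 5 concentrations; 48 h exposure; 96-well plates; endpoints linearly interpolated, else capped at highest concentration. The concentration for 50% growth inhibition is given as GI50. At the TGI there is no net growth.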

Key:
Experiment in all cases: NCI-60 cell line screen, 48 h
786-0 renal = tested on: 786-0 renal
A498 renal = tested on: A498 renal
A549 NSCLC = tested on: A549 NSCLC
ACHN renal = tested on: ACHN renal
CCRF-CEM leukemia = tested on: CCRF-CEM leukemia
COLO 205 colon = tested on: COLO 205 colon
DU-145 prostate = tested on: DU-145 prostate
EKVX NSCLC = tested on: EKVX NSCLC
HCC-2998 colon = tested on: HCC-2998 colon
HCT-116 colon = tested on: HCT-116 colon
HCT-15 colon = tested on: HCT-15 colon
HL-60(TB) leukemia = tested on: HL-60(TB) leukemia
HOP-62 NSCLC = tested on: HOP-62 NSCLC
HOP-92 NSCLC = tested on: HOP-92 NSCLC
HS 578T breast = tested on: HS 578T breast
HT29 colon = tested on: HT29 colon
IGROV1 ovarian = tested on: IGROV1 ovarian
K-562 leukemia = tested on: K-562 leukemia
KM12 colon = tested on: KM12 colon
LOX IMVI melanoma = tested on: LOX IMVI melanoma
M14 melanoma = tested on: M14 melanoma
MALME-3M melanoma = tested on: MALME-3M melanoma
MCF7 breast = tested on: MCF7 breast
MDA-MB-231 breast = tested on: MDA-MB-231 breast
MDA-MB-435 = tested on: MDA-MB-435
MOLT-4 leukemia = tested on: MOLT-4 leukemia
NCI-H226 lung = tested on: NCI-H226 lung
NCI-H23 lung = tested on: NCI-H23 lung
NCI-H460 lung = tested on: NCI-H460 lung
NCI-H522 lung = tested on: NCI-H522 lung
NCI/ADR-RES ovarian = tested on: NCI/ADR-RES ovarian
OVCAR-3 ovarian = tested on: OVCAR-3 ovarian
OVCAR-4 ovarian = tested on: OVCAR-4 ovarian
OVCAR-5 ovarian = tested on: OVCAR-5 ovarian
OVCAR-8 ovarian = tested on: OVCAR-8 ovarian
PC-3 prostate = tested on: PC-3 prostate
RPMI-8226 leukemia = tested on: RPMI-8226 leukemia
RXF 393 renal = tested on: RXF 393 renal
SF-268 CNS = tested on: SF-268 CNS
SF-295 CNS = tested on: SF-295 CNS
SF-539 CNS = tested on: SF-539 CNS
SK-MEL-2 melanoma = tested on: SK-MEL-2 melanoma
SK-MEL-28 melanoma = tested on: SK-MEL-28 melanoma
SK-MEL-5 melanoma = tested on: SK-MEL-5 melanoma
SK-OV-3 ovarian = tested on: SK-OV-3 ovarian
SN12C renal = tested on: SN12C renal
SNB-19 CNS = tested on: SNB-19 CNS
SNB-75 CNS = tested on: SNB-75 CNS
SR leukemia = tested on: SR leukemia
SW-620 colon = tested on: SW-620 colon
T-47D breast = tested on: T-47D breast
TK-10 renal = tested on: TK-10 renal
U251 CNS = tested on: U251 CNS
UACC-257 melanoma = tested on: UACC-257 melanoma
UACC-62 melanoma = tested on: UACC-62 melanoma
UO-31 renal = tested on: UO-31 renal

SMILES: CCCCCCCCCCCCCCCC(=O)NS(=O)(=O)OC[C@H]1O[C@@H](n2cnc3c(N)ncnc32)[C@H](O)[C@@H]1O
- GI50 (786-0 renal): < 0.0491 µM
- GI50 (A498 renal): < 0.03 µM
- TGI (A498 renal): < 0.048 µM
- GI50 (A549 NSCLC): 1.67 µM
- TGI (A549 NSCLC): 3.82 µM
- TGI (ACHN renal): 1.64 µM
- TGI (CCRF-CEM leukemia): 10.6 µM
- GI50 (COLO 205 colon): < 0.0157 µM
- TGI (COLO 205 colon): < 0.0238 µM
- GI50 (DU-145 prostate): < 0.0462 µM
- TGI (DU-145 prostate): 3.98 µM
- GI50 (EKVX NSCLC): 0.271 µM
- TGI (EKVX NSCLC): 1.74 µM
- GI50 (HCC-2998 colon): < 0.0192 µM
- TGI (HCC-2998 colon): < 0.038 µM
- GI50 (HCT-116 colon): 0.0719 µM
- TGI (HCT-116 colon): 1.21 µM
- GI50 (HCT-15 colon): < 0.0424 µM
- TGI (HCT-15 colon): 2.11 µM
- GI50 (HL-60(TB) leukemia): 0.454 µM
- TGI (HL-60(TB) leukemia): 4.72 µM
- GI50 (HOP-62 NSCLC): < 0.0198 µM
- GI50 (HOP-92 NSCLC): < 0.024 µM
- GI50 (HS 578T breast): 0.982 µM
- TGI (HS 578T breast): 6.04 µM
- GI50 (HT29 colon): 0.0402 µM
- TGI (HT29 colon): 0.342 µM
- GI50 (IGROV1 ovarian): 0.0371 µM
- TGI (IGROV1 ovarian): 0.199 µM
- GI50 (K-562 leukemia): 1.65 µM
- TGI (K-562 leukemia): 10 µM
- GI50 (KM12 colon): < 0.0421 µM
- TGI (KM12 colon): 3.01 µM
- GI50 (LOX IMVI melanoma): 0.394 µM
- TGI (LOX IMVI melanoma): 1.58 µM
- GI50 (M14 melanoma): 0.632 µM
- TGI (M14 melanoma): 2.17 µM
- GI50 (MALME-3M melanoma): 0.69 µM
- TGI (MALME-3M melanoma): 2.22 µM
- GI50 (MCF7 breast): 0.509 µM
- TGI (MCF7 breast): 9.77 µM
- GI50 (MDA-MB-231 breast): 0.381 µM
- TGI (MDA-MB-231 breast): 1.71 µM
- GI50 (MDA-MB-435): 0.21 µM
- TGI (MDA-MB-435): 0.551 µM
- GI50 (MOLT-4 leukemia): 0.962 µM
- TGI (MOLT-4 leukemia): 8.92 µM
- GI50 (NCI-H226 lung): < 0.0245 µM
- TGI (NCI-H226 lung): < 0.0497 µM
- GI50 (NCI-H23 lung): 0.321 µM
- TGI (NCI-H23 lung): 1.25 µM
- GI50 (NCI-H460 lung): 0.107 µM
- TGI (NCI-H460 lung): 8.6 µM
- GI50 (NCI-H522 lung): 0.0479 µM
- TGI (NCI-H522 lung): 0.427 µM
- GI50 (NCI/ADR-RES ovarian): 0.0917 µM
- TGI (NCI/ADR-RES ovarian): 3.55 µM
- TGI (OVCAR-3 ovarian): 0.124 µM
- GI50 (OVCAR-4 ovarian): 0.0392 µM
- TGI (OVCAR-4 ovarian): 0.255 µM
- GI50 (OVCAR-5 ovarian): < 0.0158 µM
- TGI (OVCAR-5 ovarian): < 0.0339 µM
- GI50 (OVCAR-8 ovarian): 0.3 µM
- TGI (OVCAR-8 ovarian): 1.28 µM
- TGI (PC-3 prostate): < 0.0166 µM
- GI50 (RPMI-8226 leukemia): 3.44 µM
- TGI (RPMI-8226 leukemia): 14.2 µM
- GI50 (RXF 393 renal): < 0.0161 µM
- TGI (RXF 393 renal): < 0.0284 µM
- GI50 (SF-268 CNS): < 0.0481 µM
- TGI (SF-268 CNS): 1.28 µM
- GI50 (SF-295 CNS): 1.01 µM
- TGI (SF-295 CNS): 2.31 µM
- GI50 (SF-539 CNS): 0.118 µM
- TGI (SF-539 CNS): 0.359 µM
- GI50 (SK-MEL-2 melanoma): 0.588 µM
- TGI (SK-MEL-2 melanoma): 2.83 µM
- TGI (SK-MEL-28 melanoma): 1.66 µM
- GI50 (SK-MEL-5 melanoma): 0.234 µM
- TGI (SK-MEL-5 melanoma): 0.571 µM
- GI50 (SK-OV-3 ovarian): 0.278 µM
- TGI (SK-OV-3 ovarian): 1.15 µM
- GI50 (SN12C renal): 0.262 µM
- TGI (SN12C renal): 1.45 µM
- GI50 (SNB-19 CNS): 0.0191 µM
- TGI (SNB-19 CNS): 0.157 µM
- GI50 (SNB-75 CNS): < 0.0471 µM
- TGI (SNB-75 CNS): 1.29 µM
- GI50 (SR leukemia): < 0.021 µM
- TGI (SR leukemia): 4.38 µM
- GI50 (SW-620 colon): 0.0412 µM
- TGI (SW-620 colon): 10.1 µM
- GI50 (T-47D breast): 0.275 µM
- TGI (T-47D breast): 1.34 µM
- GI50 (TK-10 renal): < 0.0163 µM
- TGI (TK-10 renal): < 0.0259 µM
- GI50 (U251 CNS): < 0.0162 µM
- TGI (U251 CNS): < 0.0277 µM
- GI50 (UACC-257 melanoma): 0.333 µM
- TGI (UACC-257 melanoma): 1.47 µM
- GI50 (UACC-62 melanoma): 0.215 µM
- TGI (UACC-62 melanoma): 0.599 µM
- GI50 (UO-31 renal): 0.339 µM
- TGI (UO-31 renal): 1.33 µM

SMILES: NC(N)=N/N=C/c1c(-c2ccc(Cl)c([N+](=O)[O-])c2)nc2sccn12
- TGI (786-0 renal): 3.15 µM
- TGI (A498 renal): 3.14 µM
- TGI (ACHN renal): 3.15 µM
- TGI (COLO 205 colon): 2.61 µM
- TGI (DU-145 prostate): 3.17 µM
- TGI (HCC-2998 colon): 2.94 µM
- TGI (HCT-116 colon): 2.25 µM
- TGI (HCT-15 colon): 3.5 µM
- TGI (HT29 colon): 2.8 µM
- TGI (MDA-MB-231 breast): 3.24 µM
- TGI (NCI-H226 lung): 6.23 µM
- TGI (NCI-H460 lung): 3.3 µM
- TGI (NCI/ADR-RES ovarian): > 100 µM
- TGI (OVCAR-4 ovarian): 4.49 µM
- TGI (OVCAR-5 ovarian): 3.12 µM
- TGI (PC-3 prostate): 3.11 µM
- TGI (SF-295 CNS): 3.47 µM
- TGI (SF-539 CNS): 3.27 µM
- TGI (SK-MEL-28 melanoma): 27.8 µM
- TGI (SK-MEL-5 melanoma): 3.26 µM
- TGI (SN12C renal): 3.29 µM
- TGI (TK-10 renal): 3.16 µM
- TGI (UACC-62 melanoma): 3.27 µM
- TGI (UO-31 renal): 3.05 µM
